Read-outs that look alike come from different tables or passages of the source. Blank lines part the entries; values can stand above or below the compound they belong to.
Tests used:
[1] = Plasma stability and metabolic profiling, first experiment, human plasma; assay type: in vitro ADME
Experimental: (§1) A 10 μl of MeOH was added to improve solubility. […] The supernatant fractions were analyzed by LC/MS/MS. […] Percent loss of substrate in incubations was determined to estimate the in vitro half life of the test compound. […] Assignment of the structures was done by comparison of the MS/MS analysis of the spectra with the parent spectrum.

PBMCs = assay: IL-6 and TNF-alpha secretion in PBMCs from three donors (ELISA); assay type: cell-based, human; settings: read-out: EC50 values, IL-6 secretion
Experimental: EC50 values were determined for control and each drug candidate for IL-6 and TNF-alpha secretion. […] The cells were treated with TLR7 agonists for 24 hours in 7 doses. The conditioned media was removed for ELISA analyses for IL-6 and TNF-alpha, and cell survival determined by the XTT method according to the protocol from the supplier. […] Concentrations of IL-6 and TNF-alpha were determined by ELISA from R&D Systems using the Microsoft Excel Software. The results were analyzed in Graph Pad Prism in order to prepare dose-response curves, and for determination of EC50 values.

RAW.264 cells = assay: Intracellular uptake in RAW.264 cells (LC-MS); assay type: cell-based; settings: 10 microM
Experimental: 5×10^6 RAW.264 cells were adhered overnight in 10 cm tissue culture dishes. […] […] Supernatant (2 ml) and cells (pellets) were collected by trypsinization and frozen at […] for subsequent analysis by LC-MS.

[2] = Plasma stability, first experiment, rat plasma; assay type: in vitro ADME
Experimental: (§2) A 10 μl of MeOH was added to improve solubility. […] The supernatant fractions were analyzed by LC/MS/MS. […] Percent loss of substrate in incubations was determined to estimate the in vitro half life of the test compound.

[3] = Solubility, method of European Pharmacopoeia 6.0; assay type: physicochemical
Experimental: The method reported in the European Pharmacopoeia 6.0 was used.
Batch CH730/16/8g was tested according to the method described in E. Ph: DMSO was added in 0.1 mL portions to 103.7 mg of product and the suspension was shaken with a Vortex instrument for 3 min after each addition. […] The batches CH730/16/8c, CH730/16/8g and CH730/23/8e were then tested stirring each suspension for a longer time; 100 mg of each batch dissolved completely in 0.2 mL of DMSO after stirring for 30 minutes.

[4] = Plasma stability and metabolic profiling, first experiment, rabbit plasma; assay type: in vitro ADME
Experimental: as §1

[5] = system: recombinant protein antigens from Plasmodium falciparum and Mycobacterium ulcerans; assay: Pilot immunization study with adjuvanted protein antigens; assay type: in vivo, mice; settings: three s.c. immunizations, 10 nMol adjuvant
Experimental: A pilot immunization study was conducted using Compound A and SC12 adjuvanted protein antigens. The immunization experiments were performed with two recombinant proteins expressed in E. coli. One antigen was derived from the malaria parasite Plasmodium falciparum and the other one from Mycobacterium ulcerans, which cause the ulcerative skin disease Buruli ulcer.

human PBMCs = assay: IL-6 secretion in human PBMCs, two batches of Compound A and SC12; assay type: cell-based; settings: 24 h, 4 doses
Experimental: PBMCs were purified from two donors and plated into 96 well plates at 2×10^5 cells/well in RPMI media including human 2% heat inactivated AB serum, glutamine, Pen-strep and R-mercapto-ethanol. The cells were treated with TLR7 agonists for 24 h in 4 doses. The conditioned media was removed for ELISA analyses for IL-6, and the EC50 value determined for each compound and each batch.
All compounds were tested in four concentrations (10-1-0.1-0.01 micromolar).
Concentrations of IL-6 were determined by ELISA from R&D Systems using the Microsoft Excel software. The results were analyzed in Graph Pad Prism in order to prepare dose-response curves, and for determination of EC50 values.

[6] = Plasma stability, first experiment, minipig plasma; assay type: in vitro ADME
Experimental: as §2

[7] = Storage stability by HPLC (solid or chloroform solution; temperature, light); assay type: physicochemical; settings: room temperature, natural light
[8] = Plasma stability, second experiment, human plasma; settings: human, plasma
Experimental: Second experiment: Test compounds (5 mM in DMSO) were diluted at the final concentration of 250 μM with ACN-MeOH 1:1.
Human plasma (1.180 ml) was spiked with 20 μl of 250 μM solution of the compound (4.16 μM final concentration) and aliquots of 50 μl volume were taken at 0, 15, 30, 60, 120 min and 5 hrs, and immediately quenched with 200 μl of a solution of Verapamil 250 ng/ml (internal standard, I.S.) in ACN:MeOH 95:5. Samples were then centrifuged for 20 min at 3000 rpm at 10° C. and analyzed as reported below. […] The supernatant fractions were analyzed by LC/MS/MS. Zero-time incubations were used as 100% values.
Stability was calculated as percentage remaining of the area ratio compound/I.S. at each time point vs. area ratio compound/I.S. at time 0 min.

Compound: CCCCCCCC/C=C\CCCCCCCC(=O)OCC(COP(=O)(O)OCCNC(=O)c1ccc(Cn2c(=O)[nH]c3c(N)nc(OCCOC)nc32)cc1)OC(=O)CCCCCCC/C=C\CCCCCCCC (stereo not shown) [Compound A, 2-(4-((6-amino-2-(2-methoxyethoxy)-8-oxo-7H-purin-9(8H)-yl)methyl)benzamido)ethyl 2,3-bis(oleoyloxy)propyl phosphate]
- Metabolites found ([1]; 60 and 300 min, 50 μM): two of them
- Plasma stability classification ([1]; first experiment): unstable
- % Remaining ([1]; first experiment, 0 min): 100%
- % Remaining ([1]; first experiment, 15 min): 99.7 (*) %
- % Remaining ([1]; first experiment, 30 min): 40.4 ± 15.5%
- % Remaining ([1]; first experiment, 60 min): 36.1 ± 7.6%
- % Remaining ([1]; first experiment, 120 min): 17.4 ± 2.6%
- % Remaining ([1]; first experiment, 300 min): 7.8 ± 3.3%
- EC50 (PBMCs; D1, first experiments on three donors): 460 nM
- EC50 (PBMCs; D2, first experiments on three donors): 740 nM
- EC50 (PBMCs; D3, first experiments on three donors): 255 nM
- Intracellular Concentration (RAW.264 cells; incubation 1 hours): 5.50 % of total
- Intracellular Concentration (RAW.264 cells; incubation 6 hours): 4.27 % of total
- Intracellular Concentration (RAW.264 cells; incubation 16 hours): 1.53 % of total
- Plasma stability classification [2]: unstable
- % Remaining ([2]; 0 min): 100%
- % Remaining ([2]; 15 min): 73.8 ± 4.5%
- % Remaining ([2]; 30 min): 67.1 ± 8.8%
- % Remaining ([2]; 60 min): 25.2 ± 0.5%
- % Remaining ([2]; 120 min): 21.4 ± 1.9%
- % Remaining ([2]; 300 min): 15.3 ± 1.0%
- Solubility in DMSO [3]: soluble
- Solubility in acetonitrile [3]: not soluble
- Solubility in water [3]: not soluble
- Plasma stability classification [4]: unstable
- % Remaining ([4]; 0 min): 100%
- Metabolites found ([4]; 30 and 120 min, 50 μM): Three metabolites
- % Remaining ([4]; 15 min): 38.7 ± 3.4%
- % Remaining ([4]; 30 min): 10.2 ± 1.0%
- % Remaining ([4]; 60 min): 7.4 ± 0.1%
- % Remaining ([4]; 120 min): 4.4 ± 0.7%
- % Remaining ([4]; 300 min): 1.9 ± 0.1%
- Local side effects (swelling, ulcerations) [5]: No local side effects
- EC50 (human PBMCs; Donor 1, listed as Compound A new 20289): 721 nM
- EC50 (human PBMCs; Donor 1, listed as Compound A old Ch730/25/8): 734 nM
- EC50 (human PBMCs; Donor 2, listed as Compound A new 20289): 521 nM
- EC50 (human PBMCs; Donor 2, listed as Compound A old Ch730/25/8): 392 nM
- Plasma stability classification [6]: unstable
- % Remaining ([6]; 0 min): 100%
- % Remaining ([6]; 15 min): 102.4 ± 3.3%
- % Remaining ([6]; 30 min): 73.3 ± 5.0%
- % Remaining ([6]; 60 min): 78.6 ± 2.9%
- % Remaining ([6]; 120 min): 33.7 ± 2.3%
- % Remaining ([6]; 300 min): 10.8 ± 0.3%
- Purity (HPLC) ([7]; retest 12 Jun. 2009 (test 20 May 2009)): Purity: 67.2%
- Purity (HPLC) ([7]; retest 16 Jun. 2009 (test 10 Jun. 2009)): Purity: 44.8%
- Purity (HPLC) ([7]; retest 17 Jun. 2009 (test 20 May 2009)): Purity: 58.9%
- Purity (HPLC) ([7]; retest 18 Jun. 2009 (test 11 Jun. 2009)): Purity: 71.5%
- Purity (HPLC) ([7]; test date 10 Jun. 2009): Purity: 57.5%
- Purity (HPLC) ([7]; test date 11 Jun. 2009): Purity: 81.4%
- Purity (HPLC) ([7]; test date 20 May 2009): Purity: 89.6%
- % Remaining ([8]; 0 h): 100%
- % Remaining ([8]; 0.25 h): 100.6 ± 14.5%
- % Remaining ([8]; 0.5 h): 90.3 ± 13.3%
- % Remaining ([8]; 2 h): 69.8 ± 16.8%

- % Remaining ([8]; 0 h, 4.16 μM): 100%
- % Remaining ([8]; 1 h, 4.16 μM): 23.3 ± 1.4%
- % Remaining ([8]; 5 h, 4.16 μM): 0.01 ± 0.01%
Compound: COc1cc(N)c(Cl)cc1C(=O)OCCN1CCCCC1 [Compound M7319, 2-Piperidinoethyl 4-amino-5-chloro-2-methoxybenzoate, reference compound]
